Series [1] relates to Vero. Description: Growth inhibition of African green monkey Vero cells up to 250 ug/ml. The class given is cell-based. The note with it: chlorocebus sabaeus.
Series [2] relates to Vero. Description: Cytotoxic activity against African green monkey Vero cells up to 250 ug/ml. It counts as cell-based. The note with it: chlorocebus sabaeus.
In a further series the target is T1, Thymidylate kinase (Mycobacterium tuberculosis, UniProt P9WKE1).
T1 sequence (P9WKE1 whole entry): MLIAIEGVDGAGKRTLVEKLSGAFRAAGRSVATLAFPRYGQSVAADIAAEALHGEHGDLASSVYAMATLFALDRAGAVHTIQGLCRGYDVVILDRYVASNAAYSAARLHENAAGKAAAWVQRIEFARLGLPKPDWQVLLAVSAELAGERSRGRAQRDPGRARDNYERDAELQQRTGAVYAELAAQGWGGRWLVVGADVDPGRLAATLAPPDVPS
Description: Inhibition of Mycobacterium tuberculosis TMPK using dTMP substrate and NADH by pyruvate kinase/lactate dehydrogenase coupling system based spectrophotometric assay.

In ChEMBL document CHEMBL3714722, “Aryl, Pyrimidyl Compounds, Pharmaceutical Compositions Comprising them, Their Use as Antimicrobial Agents” (2008) one finds Activity and Ki data, which are given here for two compounds.

For the compound `Cc1cn(Cc2ccc(CCCCCC(=O)O)cc2)c(=O)[nH]c1=O`, the Activity result in the series with Vero [1] and with Vero [2] was “Non-toxic” in each case.
Turning to `COC(=O)CCCC#Cc1ccc(Cn2cc(C)c(=O)[nH]c2=O)cc1`, the Ki entry on Thymidylate kinase is on record as “Not Active”.
